Data: patent US20240373851A1, “PEST CONTROL COMPOSITION AND PEST CONTROL METHOD” (SUMITOMO CHEMICAL COMPANY, LIMITED, priority 2021, published 2024)

Legend:
Format in all cases: in vivo
[1] = test system: German cockroaches (Blattella germanica); assay: Test Example 6: control test against German cockroaches, spray in chamber; conditions: adult German cockroaches; 1.5 mL sprayed; concentration [%]: isocycloseram 0.05, imiprothrin 0.01, lambda-cyhalothrin 0.0025, alone or mixed; 60 minutes after spraying
Method: (§1) Next, the usefulness of the inventive composition for controlling pests will be indicated by Test Examples. In general, the control effect to be expected when treated with a mixture obtained by mixing given two or three types of active ingredient compounds is determined by the Colby's calculation equation represented by the following [Equation 1] and [Equation 2].
(§2) [formula] • P: moribund and mortal rates (%) when treated with an active ingredient compound X in the concentration of m [ppm] • Q: moribund and mortal rates (%) when treated with an active ingredient compound Y in the concentration of n [ppm] • EA: moribund and mortal rates (%) when treated with an active ingredient compound X in the concentration of m [ppm] and an active ingredient compound Y in the concentration of n [ppm] (hereinafter referred to as expected value A) […]
(§3) Regarding the synergistic effect of three types of the active ingredient compounds, in case where the moribund and mortal rates (%) when actually treated with a mixture obtained by mixing three types of the active ingredient compounds exceed the expected value A calculated by using the moribund and mortal rates (%) when actually treated with a mixture obtained by mixing two types of the active ingredient compounds among three types thereof, and the moribund and mortal rates (%) calculated when actually treated the remaining one type of the active ingredient compound, or the expected value B (%) calculated from the moribund and mortal rates (%) when actually treated with each of three types of the active ingredient compounds alone, it was determined that the synergistic effect exists. […]

[2] = test system: German cockroaches (Blattella germanica); assay: Test Example 7: control test against German cockroaches, spray in chamber; conditions: adult German cockroaches; 1.5 mL sprayed; concentration [%]: isocycloseram 0.05, imiprothrin 0.01, cypermethrin 0.01, alone or mixed; 120 minutes after spraying
Method: as §1, §2, §3

[3] = test system: German cockroaches (Blattella germanica); assay: Test Example 11: control test against German cockroaches, spray in chamber; conditions: adult German cockroaches; 1.5 mL sprayed; concentration [%]: isocycloseram 0.01, imiprothrin 0.01, permethrin 0.05, alone or mixed; 120 minutes after spraying
Method: as §1, §2, §3

[4] = test system: German cockroaches (Blattella germanica); assay: Test Example 2: control test against German cockroaches, spray in chamber; conditions: adult German cockroaches; 1.5 mL sprayed; concentration [%]: nicofluprole 0.01, imiprothrin 0.01, cypermethrin 0.01, alone or mixed; 120 minutes after spraying
Method: as §1, §2, §3

[5] = test system: German cockroaches (Blattella germanica); assay: Test Example 4: control test against German cockroaches, spray in chamber; conditions: adult German cockroaches; 1.5 mL sprayed; concentration [%]: nicofluprole 0.01, imiprothrin 0.01, deltamethrin 0.0002, alone or mixed; 45 minutes after spraying
Method: as §1, §2, §3

[6] = test system: German cockroaches (Blattella germanica); assay: Test Example 5: control test against German cockroaches, spray in chamber; conditions: adult German cockroaches; 1.5 mL sprayed; concentration [%]: nicofluprole 0.01, imiprothrin 0.01, cyfluthrin 0.0002, alone or mixed; 45 minutes after spraying
Text: (§4) Next, the usefulness of the inventive composition for controlling pests will be indicated by Test Examples.
(§5) (hereinafter referred to as expected value A)
(§6) (hereinafter referred to as expected value B)
(§7) In a plastic cup (diameter: 12.4 cm, height: 10.2 cm) lined with a filter paper, ten adult German cockroaches (Blattella germanica) (five males and five females each) or eleven adult German cockroaches were released, and the plastic cup was placed in the center of the bottom of a box-shaped chamber (46 cm×46 cm×70 cm in height). From the height of 60 cm, 1.5 mL of each of formulations prepared by dissolving a single agent of any one of nicofluprole, imiprothrin and cyfluthrin, or a mixed agent of two or more thereof in a mixture of isopropyl alcohol and Isopar M at a mixing ratio of 1:9 was sprayed under a spray pressure of 0.041 MPa. After a lapse of 45 minutes from spraying, the number of dead and moribund individuals was examined, and moribund and mortal rates (%) were determined by the above equation 3. The test was performed through two replicates. Dead individuals are completely immobile individuals, and moribund individuals are individuals who cannot get up when turned on their backs.

[7] = test system: German cockroaches (Blattella germanica); assay: Test Example 8: control test against German cockroaches, spray in chamber; conditions: adult German cockroaches; 1.5 mL sprayed; concentration [%]: nicofluprole 0.01, imiprothrin 0.01, phenothrin 0.1, alone or mixed; 45 minutes after spraying
Method: as §1, §2, §3

[8] = test system: German cockroaches (Blattella germanica); assay: Test Example 10: control test against German cockroaches, spray in chamber; conditions: adult German cockroaches; 1.5 mL sprayed; concentration [%]: nicofluprole 0.01, imiprothrin 0.01, permethrin 0.05, alone or mixed; 60 minutes after spraying
Method: as §1, §2, §3

[9] = test system: German cockroaches (Blattella germanica); assay: Test Example 9: control test against German cockroaches, spray in chamber; conditions: adult German cockroaches; 1.5 mL sprayed; concentration [%]: broflanilide 0.02, imiprothrin 0.01, permethrin 0.05, alone or mixed; 420 minutes after spraying
Text: as §4, §5, §6
as §7, with “each)” for “each) or eleven adult German cockroaches”, “broflanilide,” for “nicofluprole,”, “permethrin,” for “cyfluthrin,”, “420” for “45”

| Structure (SMILES) | Moribund and mortal rates [%] after 60 minutes [1] | Moribund and mortal rates [%] after 120 minutes [2] | Moribund and mortal rates [%] after 120 minutes [3] | Moribund and mortal rates [%] after 120 minutes [4] | Moribund and mortal rates [%] after 45 minutes [5] | Moribund and mortal rates [%] after 45 minutes [6] | Moribund and mortal rates [%] after 45 minutes [7] | Moribund and mortal rates [%] after 60 minutes [8] | Moribund and mortal rates [%] after 420 minutes [9] |
| --- | --- | --- | --- | --- | --- | --- | --- | --- | --- |
| CCN1OCC(NC(=O)c2ccc(C3=NOC(c4cc(Cl)c(F)c(Cl)c4)(C(F)(F)F)C3)cc2C)C1=O (centres unmarked) [Isocycloseram, isocycloseram] | 5% | 10% | 5% |  |  |  |  |  |  |
| CN(C(=O)c1cc(-c2cnn(-c3c(Cl)cc(C(F)(C(F)(F)F)C(F)(F)F)cc3Cl)c2)cnc1Cl)C1CC1 [Nicofluprole, nicofluprole] |  |  |  | 0% | 0% | 0% | 0% | 0% |  |
| CC1(C)C(C=C(Cl)Cl)C1C(=O)OCc1cccc(Oc2ccccc2)c1 (centres unmarked) [Permethrin, permethrin] |  |  | 5% |  |  |  |  | 5% | 5% |
